Data taken from patent US20110053945A1, “SALTS OF 6-(5-CHLORO-2-PYRIDYL)-5-[(4-METHYL-1-PIPERAZINYL)CARBONYLOXY]-7-OXO-6,7-DIHY-DRO-5H-PYRROLO[3,4-B]PYRAZINE” (SEPRACOR INC., priority 2007, published 2011).
Structures can show the parent of a compound that is named as a salt.

Columns and labels:
[1] = Intrinsic dissolution, USP 28 method <1087>; format: physicochemical; details: isotonic 50 mM acetate buffer pH 4.5, 37° C., 50 rpm; for Intrinsic dissolution Average: average of two runs
Protocol: Intrinsic dissolution was determined using USP 28 method <1087> (United States Pharmacopeia, The National Formulary, USP 28, 28th edition, Rockville, […]., 2005). Preparation of each test sample was performed as per USP 28 method <1087> by weighing and transferring the material to the die cavity and compressing for 1 minute at the minimum compression pressure necessary to form a nondisintegrating compacted pellet. The dissolution media used was isotonic 50 mM acetate buffer (pH 4.5) at 37° C. and speed was set at 50 rpm. Each run was halted at 5 min, irrespective of the percent dissolved. Each salt was run in duplicate.

[2] = Aqueous solubility, equilibrated 24 hour suspension of the salt in water, HPLC; format: physicochemical; details: for pH: pH measured at saturation in water; for Solubility: water, 24 hour at ambient
Protocol: The aliquot was diluted and analyzed by HPLC. The data was compared to a standard curve generated from a set of solutions of known concentrations. The standard curve and the samples were analyzed using a HPLC using the following conditions: • Column: Symmetry C-18, 5 um, 15 cm×3.9 mm (Waters) • Mobile Phase: 0.05 M KH2PO4-0.01 M Hexanesulfonic Acid/THF (1000:125) (Apparent pH 5.0) • Column Temp: 20-30° C. • Flow Rate: 1.0 mL/min • Wavelength: 305 nm • Run Time: 15 min (zopiclone retention time is 9.5-10 min)

SMILES | Intrinsic dissolution Run 1 [1] [mgA/cm^2/min] | Intrinsic dissolution Run 2 [1] [mgA/cm^2/min] | Intrinsic dissolution Average [1] [mgA/cm^2/min] | pH [2] | Solubility [2]
CN1CCN(C(=O)OC2c3nccnc3C(=O)N2c2ccc(Cl)cn2)CC1 (stereo in doubt) [(R)-Mandelate, (S)-Zopiclone (R)-Mandelate] | 8.2 | 8.9 | 8.5 | 5.1 | 25 mgA/mL
CN1CCN(C(=O)O[C@H]2c3nccnc3C(=O)N2c2ccc(Cl)cn2)CC1 [Mesylate, (S)-Zopiclone Mesylate] |  |  |  | 4.9 | >86 mgA/mL
CN1CCN(C(=O)O[C@H]2c3nccnc3C(=O)N2c2ccc(Cl)cn2)CC1 [Free base, (S)-(6-(5-chloro-2-pyridyl)-5-[(4-methyl-1-piperazinyl)carbonyloxy]-7-oxo-6,7-dihydro-5H-pyrrolo[3,4-b]pyrazine), reference compound] | 0.6 | 0.5 | 0.5 | 7.6 | 0.2^1 mgA/mL
CN1CCN(C(=O)O[C@H]2c3nccnc3C(=O)N2c2ccc(Cl)cn2)CC1 [Succinate, (S)-Zopiclone Succinate] |  |  |  |  | 100 mgA/mL
CN1CCN(C(=O)O[C@H]2c3nccnc3C(=O)N2c2ccc(Cl)cn2)CC1 [D-Malate, (S)-Zopiclone D-Malate] | 20.0 | 19.8 | 19.9 | 4.0 | 36 mgA/mL
